The values below come from PubChem BioAssay (NCI).

Where “and” joins values, the source holds several entries; their conditions need not be identical. Identical values can stand only once.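 96-well plates; 48 h exposure; 5 concentrations. Endpoints by linear interpolation between flanking doses. Not reached: highest tested concentration assigned. Abbreviation: GI50, concentration required for 50% inhibition of growth. TGI: concentration producing complete growth inhibition.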

Test systems include SF-539 CNS; HOP-92 NSCLC; OVCAR-5 ovarian; KM12 colon; RPMI-8226 leukemia; HS 578T breast; DU-145 prostate; SF-295 CNS; NCI-H460 lung; OVCAR-3 ovarian.
Assay in all cases: growth of human tumour cells (NCI), 48 h

For `O=C(O)c1ccc2c3c(ncnc13)-c1ccccc1C2=O`, the GI50 in the assay on SF-539 CNS was 8500 nM; in the assay with HOP-92 NSCLC it was above 100000 nM; in the assay on OVCAR-5 ovarian, 37.9 µM; with KM12 colon it was 7000 nM; with RPMI-8226 leukemia it was 51.3 µM; in the assay with HS 578T breast, 1190 nM. Besides, the GI50 was 1460 nM in the assay with DU-145 prostate, 2280 nM in the assay with SF-295 CNS, 2430 nM in the assay on NCI-H460 lung and 31200 nM in the assay on OVCAR-3 ovarian. Moreover, the TGI is above 100 µM in the assay with SF-539 CNS; above 100 µM in the assay on HOP-92 NSCLC; above 100000 nM in the assay on OVCAR-5 ovarian; above 100000 nM with KM12 colon; above 88700 nM in the assay on RPMI-8226 leukemia; 6.28 µM with HS 578T breast. For the same compound, the TGI is 2830 nM with DU-145 prostate, above 30.6 µM in the assay with SF-295 CNS, 6020 nM with NCI-H460 lung and above 100000 nM in the assay on OVCAR-3 ovarian.
In the case of `CC1(C)N=C(N)N=C(N)N1c1ccc(CCc2ccc(Cl)cc2S(=O)(=O)F)c(Cl)c1`, the GI50 in the assay on SF-539 CNS is 5540 nM; with HOP-92 NSCLC, 16600 nM; in the assay on OVCAR-5 ovarian it was 4.76 µM; in the assay with KM12 colon, 4630 nM; in the assay on RPMI-8226 leukemia, 10.2 µM; in the assay on HS 578T breast, 11100 nM. For the same compound, the GI50 was 5910 nM in the assay on DU-145 prostate, 4820 nM in the assay with SF-295 CNS, 3120 nM in the assay on NCI-H460 lung and 4820 nM in the assay with OVCAR-3 ovarian. In addition, the TGI in the assay on SF-539 CNS is 26.1 µM; in the assay with HOP-92 NSCLC, 58.3 µM; in the assay with OVCAR-5 ovarian it was above 100000 nM; with KM12 colon it was 17600 nM; in the assay with RPMI-8226 leukemia it was 38500 nM; with HS 578T breast it was 41.3 µM. In addition, the TGI with DU-145 prostate was above 100000 nM; in the assay on SF-295 CNS it was above 100 µM; in the assay on NCI-H460 lung, above 100000 nM; with OVCAR-3 ovarian it was 21400 nM.
`O=C(O)c1ccc([S-])cc1.[Au+].c1ccc(CN2[CH-]N(Cc3ccccc3)C(c3ccccc3)=C2c2ccccc2)cc1`: the GI50 with SF-539 CNS was 505 nM; in the assay with HOP-92 NSCLC it was 204 nM; in the assay on OVCAR-5 ovarian, 0.918 µM; with KM12 colon, 513 nM; in the assay with RPMI-8226 leukemia, 0.323 µM; in the assay with HS 578T breast, 459 nM. The GI50 is 526 nM with DU-145 prostate, 242 nM in the assay on SF-295 CNS, 328 nM in the assay with NCI-H460 lung and 373 nM in the assay on OVCAR-3 ovarian. The TGI in the assay with SF-539 CNS came to 1.78 µM; with HOP-92 NSCLC, 0.806 µM; in the assay on OVCAR-5 ovarian, 2200 nM; in the assay with KM12 colon, 1820 nM; with RPMI-8226 leukemia, 2000 nM; with HS 578T breast it was 2.84 µM. Further, the TGI was 1740 nM with DU-145 prostate, 1.09 µM in the assay on SF-295 CNS, 1280 nM with NCI-H460 lung and 1280 nM with OVCAR-3 ovarian.
As for `COc1ccc2c3c(c4ccccc4cc13)C(=O)N(CCN(C)CCN)C2=O`, the GI50 in the assay with SF-539 CNS is 186 nM; in the assay on HOP-92 NSCLC, 114 nM; with OVCAR-5 ovarian, 0.293 µM; in the assay with KM12 colon it was 171 nM; with RPMI-8226 leukemia, 0.166 µM; in the assay with HS 578T breast it was 1190 nM. The GI50 was 66.3 nM with DU-145 prostate, 43.7 nM in the assay on SF-295 CNS, 12.9 nM with NCI-H460 lung and 257 nM in the assay with OVCAR-3 ovarian. In addition, the TGI is 1.35 µM in the assay on SF-539 CNS; 0.896 µM in the assay on HOP-92 NSCLC; 1540 nM in the assay with OVCAR-5 ovarian; 1280 nM with KM12 colon; 750 nM with RPMI-8226 leukemia; 3.67 µM with HS 578T breast. In addition, the TGI in the assay on DU-145 prostate turned out to be 1040 nM; in the assay on SF-295 CNS, 1.03 µM; with NCI-H460 lung it was 323 nM; in the assay with OVCAR-3 ovarian, 1190 nM.
On to `c1ccc(Nn2c(CCCCCCCCc3nnc(COc4ccccc4)n3Nc3ccccc3)nnc2COc2ccccc2)cc1`, for which the GI50 in the assay on SF-539 CNS is 7230 nM; in the assay with HOP-92 NSCLC, 30700 nM and 41900 nM; with OVCAR-5 ovarian, 8.56 µM and 10.2 µM; in the assay on KM12 colon, 5700 nM and 2690 nM; in the assay with HS 578T breast, 35500 nM; in the assay with DU-145 prostate, 35000 nM and > 300000 nM. For the same compound, the GI50 with SF-295 CNS is 1240 nM and 7510 nM; with NCI-H460 lung, 6340 nM and 12900 nM; in the assay with OVCAR-3 ovarian it was 16500 nM and 41200 nM. For the same compound, the TGI with SF-539 CNS is > 60.5 µM and 20 µM; in the assay on HOP-92 NSCLC, 267 µM; in the assay with OVCAR-5 ovarian, above 300000 nM; in the assay with KM12 colon, above 300000 nM; in the assay on RPMI-8226 leukemia, above 300000 nM; in the assay on HS 578T breast, above 300 µM. For the same compound, the TGI in the assay with DU-145 prostate, with NCI-H460 lung and with OVCAR-3 ovarian was above 300000 nM in each case.
As for `CN1CCC(C(=O)Nc2n[nH]c3nc(-c4ccc(O)cc4)c(Br)cc23)CC1`, the GI50 in the assay with SF-539 CNS is 647 nM and 946 nM; in the assay with HOP-92 NSCLC, 970 nM; in the assay on OVCAR-5 ovarian, 7.83 µM and 10.4 µM; in the assay on KM12 colon, 1820 nM and 1490 nM; with RPMI-8226 leukemia it was 9.78 µM and 24.4 µM; in the assay with HS 578T breast it was 1150 nM and 208 nM. The GI50 with DU-145 prostate was 1690 nM and 1180 nM; with SF-295 CNS, 3940 nM and 3410 nM; in the assay with NCI-H460 lung it was 1970 nM and 1100 nM; in the assay on OVCAR-3 ovarian, 815 nM and 504 nM. Further, the TGI is 3.23 µM and 8.15 µM with SF-539 CNS; 5.04 µM in the assay on HOP-92 NSCLC; above 25000 nM in the assay with OVCAR-5 ovarian; above 25000 nM with KM12 colon; above 25000 nM in the assay with RPMI-8226 leukemia; above 15.1 µM with HS 578T breast. The TGI in the assay with DU-145 prostate was above 25000 nM; in the assay with SF-295 CNS, 20.1 µM and 22.3 µM; in the assay on NCI-H460 lung it was above 25000 nM; in the assay with OVCAR-3 ovarian, > 11600 nM and 1440 nM.
`COc1ccc2c(c1)c1nc3cc(C)c(C)cc3nc1n2CCN(C)C`: the GI50 was 907 nM in the assay on SF-539 CNS; 308 nM in the assay with HOP-92 NSCLC; 0.953 µM in the assay on OVCAR-5 ovarian; 827 nM with KM12 colon; 0.453 µM in the assay on RPMI-8226 leukemia; 1770 nM in the assay with HS 578T breast. Besides, the GI50 is 1060 nM in the assay on DU-145 prostate, 677 nM in the assay on SF-295 CNS, 369 nM in the assay on NCI-H460 lung and 1130 nM in the assay with OVCAR-3 ovarian. For the same compound, the TGI in the assay on SF-539 CNS came to 2.35 µM; in the assay with HOP-92 NSCLC, 2.12 µM; in the assay on OVCAR-5 ovarian, 2300 nM; in the assay on KM12 colon it was 2370 nM; in the assay on RPMI-8226 leukemia, 2350 nM; in the assay with HS 578T breast, 6.23 µM. Moreover, the TGI came to 2370 nM in the assay with DU-145 prostate, 1.95 µM in the assay on SF-295 CNS, 1390 nM in the assay on NCI-H460 lung and 2550 nM in the assay with OVCAR-3 ovarian.
